Earlier results, collected in article PMC7001544 (JHEP Reports, 2019).

Tests used:
[1] = tested on: HBV
[2] = tested on: NTCP

SMILES: Cc1c(C)c2c(c(C)c1O)CCC(C)(COc1ccc(CC3SC(=O)NC3=O)cc1)O2 (centres unmarked) [troglitazone]
- effect on internalization and infection of HBV [1]: interfere with internalization and infection of HBV
- effect on NTCP oligomerization [2]: prevent NTCP oligomerization
